In one experiment the test system is Puccinia recondita. In words: Fungicidal activity against Wheat Leaf Rust (WLR) disease. The experiment is classed as in vivo. The conditions noted are these: Wheat Leaf Rust.
A further experiment concerns Erysiphae graminis. In words: Fungicidal activity against Barley Powdery Mildew (BPM) disease. The experiment is classed as in vivo. The conditions noted are these: Barley Powdery Mildew.
For another experiment, the system named is Rhizoctonia solani AG-1. The experiment in a line: Fungicidal activity against Rice Sheath Blight (RSB) disease. The conditions noted are these: Rice Sheath Blight.
In a further experiment the test system is Phytophthora infestans. The class given is in vivo. The conditions noted are these: Tomato Late Blight; concentration 50 ppm.
The next experiment has as its system Botrytis cinerae. In words: Fungicidal activity against Cucumber Gray Mold Rot (CGM) disease. The experiment is classed as in vivo. The conditions noted are these: Cucumber Gray Mold Rot; concentration 50 ppm.
Experiment [1] relates to Pyricularia oryzae Carvara KA301. The class given is in vivo. The conditions noted are these: Rice Blast.

SMILES strings stand for the structures. Where two headings read alike, the source gives them in different places.

Consider `CNC(=O)C(=NOC)c1ccccc1CON=Cc1cccc(OC(F)=C(c2cccc(OC)c2)C(F)(F)F)c1` [Compound 143], for which the “WLR (Fungicidal Activities, C.V.)” value was determined as 36% in the experiment with Puccinia recondita (concentration 2 ppm) and 90% with Puccinia recondita (concentration 50 ppm). Besides, the “BPM (Fungicidal Activities, C.V.)” value is 0% with Erysiphae graminis (concentration 2 ppm) and 93% with Erysiphae graminis (concentration 50 ppm). Also, in the experiment on Rhizoctonia solani AG-1 (concentration 50 ppm), the “RSB (Fungicidal Activities, C.V.)” value was determined as 58%. The “TLB (Fungicidal Activities, C.V.)” value with Phytophthora infestans was 0%. The “CGM (Fungicidal Activities, C.V.)” value with Botrytis cinerae worked out at 0%. In addition, the “RCV (Fungicidal Activities, C.V.)” value in experiment [1] (concentration 2 ppm) turned out to be 83%; in experiment [1] (concentration 50 ppm) it was 100%.

For the molecule `CCOc1ccc(C(=C(F)Oc2cccc(C=NOCc3ccccc3C(=NOC)C(=O)NC)c2)C(F)(F)F)cc1` [Compound 144], the “WLR (Fungicidal Activities, C.V.)” value in the experiment with Puccinia recondita (concentration 50 ppm) worked out at 86%. In addition, the “BPM (Fungicidal Activities, C.V.)” value in the experiment on Erysiphae graminis (concentration 2 ppm) worked out at 0%; in the experiment on Erysiphae graminis (concentration 50 ppm) it was 95%. The “RSB (Fungicidal Activities, C.V.)” value in the experiment with Rhizoctonia solani AG-1 (concentration 50 ppm) came to 47%. For the same molecule, in the experiment on Phytophthora infestans, the “TLB (Fungicidal Activities, C.V.)” value worked out at 0%. Further, the “CGM (Fungicidal Activities, C.V.)” value with Botrytis cinerae was found to be 0%. Besides, the “RCV (Fungicidal Activities, C.V.)” value is 88% in experiment [1] (concentration 2 ppm) and 96% in experiment [1] (concentration 50 ppm).

On to `CNC(=O)C(=NOC)c1ccccc1CON=Cc1cccc(OC(F)=C(c2ccc(F)cc2)C(F)(F)F)c1` [Compound 145], for which the “WLR (Fungicidal Activities, C.V.)” value with Puccinia recondita (concentration 2 ppm) is reported as 83%; in the experiment with Puccinia recondita (concentration 50 ppm), 100%. Also, the entries for the “BPM (Fungicidal Activities, C.V.)” value in the experiment with Erysiphae graminis (concentration 2 ppm) and with Erysiphae graminis (concentration 50 ppm) were 33% and 100%, respectively. The “RSB (Fungicidal Activities, C.V.)” value in the experiment on Rhizoctonia solani AG-1 (concentration 50 ppm) came to 64%. Further, the “TLB (Fungicidal Activities, C.V.)” value in the experiment with Phytophthora infestans was found to be 0%. Moreover, the “CGM (Fungicidal Activities, C.V.)” value with Botrytis cinerae was determined as 0%. Further, the “RCV (Fungicidal Activities, C.V.)” value was found to be 83% in experiment [1] (concentration 2 ppm) and 100% in experiment [1] (concentration 50 ppm).

For `COC=C(C(=O)OC)c1ccccc1CON=C(C)c1cccc(OC(F)=C(c2ccccc2)C(F)(F)F)c1` [Compound 150], the “WLR (Fungicidal Activities, C.V.)” value with Puccinia recondita (concentration 2 ppm) is reported as 95%; with Puccinia recondita (concentration 10 ppm), 100%; in the experiment with Puccinia recondita (concentration 50 ppm) it was 100%. Moreover, the “BPM (Fungicidal Activities, C.V.)” value in the experiment on Erysiphae graminis (concentration 2 ppm), in the experiment with Erysiphae graminis (concentration 10 ppm) and in the experiment with Erysiphae graminis (concentration 50 ppm) was 100% throughout. Also, the “RSB (Fungicidal Activities, C.V.)” value in the experiment on Rhizoctonia solani AG-1 (concentration 2 ppm) turned out to be 55%; in the experiment on Rhizoctonia solani AG-1 (concentration 10 ppm) it was 65%; in the experiment with Rhizoctonia solani AG-1 (concentration 50 ppm), 92%. Also, the “TLB (Fungicidal Activities, C.V.)” value in the experiment with Phytophthora infestans was determined as 50%. In the experiment on Botrytis cinerae, the “CGM (Fungicidal Activities, C.V.)” value came to 44%. Besides, the “RCV (Fungicidal Activities, C.V.)” value in experiment [1] (concentration 2 ppm) was determined as 83%; in experiment [1] (concentration 10 ppm) it was 100%; in experiment [1] (concentration 50 ppm) it was 100%.

Consider `COC=C(C(=O)OC)c1ccccc1CON=C(C)c1cccc(OC(F)=C(c2cccc(C)c2)C(F)(F)F)c1` [Compound 151], for which the results for the “WLR (Fungicidal Activities, C.V.)” value in the experiment on Puccinia recondita (concentration 2 ppm), in the experiment with Puccinia recondita (concentration 10 ppm) and with Puccinia recondita (concentration 50 ppm) were 86%, 95% and 100%, respectively. Also, the “BPM (Fungicidal Activities, C.V.)” value with Erysiphae graminis (concentration 2 ppm) is on record as 98%; in the experiment on Erysiphae graminis (concentration 10 ppm), 100%; with Erysiphae graminis (concentration 50 ppm) it was 100%. For the same molecule, the “RSB (Fungicidal Activities, C.V.)” value in the experiment with Rhizoctonia solani AG-1 (concentration 2 ppm) amounted to 35%; in the experiment on Rhizoctonia solani AG-1 (concentration 10 ppm), 55%; in the experiment with Rhizoctonia solani AG-1 (concentration 50 ppm), 95%. For the same molecule, the “TLB (Fungicidal Activities, C.V.)” value with Phytophthora infestans was found to be 12%. The “CGM (Fungicidal Activities, C.V.)” value with Botrytis cinerae turned out to be 24%. The “RCV (Fungicidal Activities, C.V.)” value in experiment [1] (concentration 2 ppm) is on record as 93%; in experiment [1] (concentration 10 ppm) it was 99%; in experiment [1] (concentration 50 ppm), 100%.

Consider `COC=C(C(=O)OC)c1ccccc1CON=C(C)c1cccc(OC(F)=C(c2ccc(C)cc2)C(F)(F)F)c1` [Compound 152], for which the “WLR (Fungicidal Activities, C.V.)” value in the experiment with Puccinia recondita (concentration 2 ppm) stood at 86%; with Puccinia recondita (concentration 10 ppm) it was 98%; with Puccinia recondita (concentration 50 ppm), 100%. For the same molecule, the “BPM (Fungicidal Activities, C.V.)” value in the experiment on Erysiphae graminis (concentration 2 ppm) is 95%; in the experiment with Erysiphae graminis (concentration 10 ppm), 100%; with Erysiphae graminis (concentration 50 ppm), 100%. Further, the “RSB (Fungicidal Activities, C.V.)” value in the experiment with Rhizoctonia solani AG-1 (concentration 2 ppm) is recorded as 45%; in the experiment on Rhizoctonia solani AG-1 (concentration 10 ppm), 60%; in the experiment with Rhizoctonia solani AG-1 (concentration 50 ppm), 90%. Besides, in the experiment on Phytophthora infestans, the “TLB (Fungicidal Activities, C.V.)” value turned out to be 0%. For the same molecule, in the experiment with Botrytis cinerae, the “CGM (Fungicidal Activities, C.V.)” value was determined as 44%. Besides, the results for the “RCV (Fungicidal Activities, C.V.)” value in experiment [1] (concentration 2 ppm), in experiment [1] (concentration 10 ppm) and in experiment [1] (concentration 50 ppm) were 86%, 97% and 100%, respectively.

In the case of `COC=C(C(=O)OC)c1ccccc1CON=C(C)c1cccc(OC(F)=C(c2ccc(C)c(C)c2)C(F)(F)F)c1` [Compound 153], the “WLR (Fungicidal Activities, C.V.)” value turned out to be 91% in the experiment with Puccinia recondita (concentration 2 ppm), 100% with Puccinia recondita (concentration 10 ppm) and 100% in the experiment on Puccinia recondita (concentration 50 ppm). Besides, the “BPM (Fungicidal Activities, C.V.)” value in the experiment on Erysiphae graminis (concentration 2 ppm) amounted to 83%; with Erysiphae graminis (concentration 10 ppm) it was 99%; in the experiment with Erysiphae graminis (concentration 50 ppm), 100%. The “RSB (Fungicidal Activities, C.V.)” value in the experiment with Rhizoctonia solani AG-1 (concentration 50 ppm) was 55%. In addition, in the experiment on Phytophthora infestans, the “TLB (Fungicidal Activities, C.V.)” value was found to be 13%. The “CGM (Fungicidal Activities, C.V.)” value with Botrytis cinerae turned out to be 20%. For the same molecule, the “RCV (Fungicidal Activities, C.V.)” value in experiment [1] (concentration 2 ppm) is listed as 0%; in experiment [1] (concentration 10 ppm) it was 25%; in experiment [1] (concentration 50 ppm), 86%.

With `COC=C(C(=O)OC)c1ccccc1CON=C(C)c1cccc(OC(F)=C(c2cc(C)cc(C)c2)C(F)(F)F)c1` [Compound 154], the “WLR (Fungicidal Activities, C.V.)” value came out at 73% in the experiment on Puccinia recondita (concentration 2 ppm), 96% in the experiment with Puccinia recondita (concentration 10 ppm) and 98% in the experiment on Puccinia recondita (concentration 50 ppm). In addition, the “BPM (Fungicidal Activities, C.V.)” value with Erysiphae graminis (concentration 2 ppm) came to 68%; in the experiment with Erysiphae graminis (concentration 10 ppm) it was 98%; with Erysiphae graminis (concentration 50 ppm), 100%. In addition, the “RSB (Fungicidal Activities, C.V.)” value in the experiment on Rhizoctonia solani AG-1 (concentration 2 ppm) is 25%; with Rhizoctonia solani AG-1 (concentration 10 ppm), 35%; with Rhizoctonia solani AG-1 (concentration 50 ppm), 90%. The “TLB (Fungicidal Activities, C.V.)” value in the experiment on Phytophthora infestans is 12%. Moreover, the “CGM (Fungicidal Activities, C.V.)” value in the experiment on Botrytis cinerae amounted to 58%. In addition, the “RCV (Fungicidal Activities, C.V.)” value in experiment [1] (concentration 50 ppm) is reported as 16%.

As to `CCc1ccc(C(=C(F)Oc2cccc(C(C)=NOCc3ccccc3C(=COC)C(=O)OC)c2)C(F)(F)F)cc1` [Compound 155], the “WLR (Fungicidal Activities, C.V.)” value with Puccinia recondita (concentration 2 ppm) is recorded as 83%; in the experiment with Puccinia recondita (concentration 10 ppm), 99%; in the experiment on Puccinia recondita (concentration 50 ppm) it was 100%. The “BPM (Fungicidal Activities, C.V.)” value in the experiment with Erysiphae graminis (concentration 2 ppm) was determined as 95%; in the experiment on Erysiphae graminis (concentration 10 ppm), 99%; in the experiment with Erysiphae graminis (concentration 50 ppm) it was 100%. Besides, the “RSB (Fungicidal Activities, C.V.)” value with Rhizoctonia solani AG-1 (concentration 50 ppm) was determined as 60%. Further, the “TLB (Fungicidal Activities, C.V.)” value in the experiment on Phytophthora infestans turned out to be 6%. The “CGM (Fungicidal Activities, C.V.)” value with Botrytis cinerae is on record as 52%. For the same molecule, the “RCV (Fungicidal Activities, C.V.)” value in experiment [1] (concentration 50 ppm) was determined as 80%.

With `CCCCc1ccc(C(=C(F)Oc2cccc(C(C)=NOCc3ccccc3C(=COC)C(=O)OC)c2)C(F)(F)F)cc1` [Compound 156], the “WLR (Fungicidal Activities, C.V.)” value in the experiment on Puccinia recondita (concentration 10 ppm) was determined as 95%; in the experiment on Puccinia recondita (concentration 50 ppm) it was 93%. The “BPM (Fungicidal Activities, C.V.)” value came out at 91% in the experiment on Erysiphae graminis (concentration 10 ppm) and 92% in the experiment on Erysiphae graminis (concentration 50 ppm). For the same molecule, the “RSB (Fungicidal Activities, C.V.)” value in the experiment on Rhizoctonia solani AG-1 (concentration 50 ppm) came to 20%. In addition, the “TLB (Fungicidal Activities, C.V.)” value in the experiment on Phytophthora infestans turned out to be 0%. Further, the “CGM (Fungicidal Activities, C.V.)” value in the experiment on Botrytis cinerae amounted to 36%. Further, in experiment [1] (concentration 50 ppm), the “RCV (Fungicidal Activities, C.V.)” value is on record as 33%.

These data come from patent US6552080B1, “Fungicidal compounds having a fluorovinyl-or fluoropropenyl-oxyphenyloxime moiety and process for the preparation thereof” (Korea Research Institute of Chemical Technology, priority 1999, dated 2003).
